This is an account of results in patent US9533961B2, “Molecules having certain pesticidal utilities, and intermediates, compositions, and processes related thereto” (priority 2014, dated 2017).

SMILES strings stand for the structures.

Format in all cases: in vivo
Data set [1] deals with Beet Armyworm (Spodoptera exigua, LAPHEG) ("BAW"). Briefly: Bioassay on Beet Armyworm (BAW), 128-well diet tray assay. The following applies: 168 h, 50 μg/cm^2 on artificial diet, second instar larvae, five to seven days, 25° C., average of eight wells, read-out: BAW % Control (or Mortality) rating. The method, then:
(§1) Certain molecules disclosed in this document were tested against BAW and CEW using procedures described in the following examples. In the reporting of the results, the “BAW & CL Rating Table” was used (See Table Section).
Bioassays on BAW were conducted using a 128-well diet tray assay. one to five second instar BAW larvae were placed in each well (3 mL) of the diet tray that had been previously filled with 1 mL of artificial diet to which 50 μg/cm^2 of the test compound (dissolved in 50 μL of 90:10 acetone-water mixture) had been applied (to each of eight wells) and then allowed to dry. Trays were covered with a clear self-adhesive cover and held at 25° C., 14:10 light-dark for five to seven days. Percent mortality was recorded for the larvae in each well; activity in the eight wells was then averaged. The results are indicated in the table entitled “Table ABC: Biological Results” (See Table Section).

In data set [2] the test system is Cabbage Looper (Trichoplusia ni, TRIPNI) ("CL"). In words: Bioassay on Cabbage Looper (CL), 128-well diet tray assay. The note with it: 168 h, read-out: CL % Control (or Mortality) rating. The method, then: as §1
Bioassays on CL were conducted using a 128-well diet tray assay. one to five second instar CL larvae were placed in each well (3 mL) of the diet tray that had been previously filled with 1 mL of artificial diet to which 50 μg/cm^2 of the test compound (dissolved in 50 μL of 90:10 acetone-water mixture) had been applied (to each of eight wells) and then allowed to dry. Trays were covered with a clear self-adhesive cover and held at 25° C., 14:10 light-dark for five to seven days. Percent mortality was recorded for the larvae in each well; activity in the eight wells was then averaged. The results are indicated in the table entitled “Table ABC: Biological Results” (See Table Section).

The subject of data set [3] is Yellow Fever Mosquito (Aedes aegypti, AEDSAE) ("YFM"). In words: Bioassay on Yellow Fever Mosquito (YFM), 96-well plate larval assay. The following applies: about 1 day-old larvae, from 4000 ppm master plate, scored on mortality after 3 days. The method, then: Certain molecules disclosed in this document were tested against YFM using procedures described in the following paragraph. In the reporting of the results, the “YFM Rating Table” was used (See Table Section).
Master plates containing 400 μg of a molecule dissolved in 100 μL of dimethyl sulfoxide (DMSO) (equivalent to a 4000 ppm solution) are used. A master plate of assembled molecules contains 15 μL per well. To this plate, 135 μL of a 90:10 water:acetone mixture is added to each well. A robot (Biomek® NXP Laboratory Automation Workstation) is programmed to dispense 15 μL aspirations from the master plate into an empty 96-well shallow plate (“daughter” plate). There are 6 reps (“daughter” plates) created per master. The created daughter plates are then immediately infested with YFM larvae.
The day before plates are to be treated, mosquito eggs are placed in Millipore water containing liver powder to begin hatching (4 g. into 400 mL). After the daughter plates are created using the robot, they are infested with 220 μL of the liver powder/larval mosquito mixture (about 1 day-old larvae). After plates are infested with mosquito larvae, a non-evaporative lid is used to cover the plate to reduce drying. Plates are held at room temperature for 3 days prior to grading. After 3 days, each well is observed and scored based on mortality.

What is called mortality is the share of the test organisms that died. `COc1ccc(C(=O)Nc2ccc(-c3ncn(-c4ccc(OC(F)(F)F)cc4)n3)cc2)cc1` [F26, 4-Methoxy-N-(4-(1-(4-(trifluoromethoxy)phenyl)-1H-1,2,4-triazol-3-yl)phenyl)benzamide]: the mortality at 50 µg/cm2 in data set [1] and in data set [2] was 50 to 100% in each case. The “YFM % Control (or Mortality) rating” value in data set [3] is on record as “D (No activity noticed in this bioassay)”.
With `O=C(Nc1ccc(-c2ncn(-c3ccc(OC(F)(F)F)cc3)n2)cc1)c1ccc(-c2ccccc2)cc1` [F25, N-(4-(1-(4-(trifluoromethoxy)phenyl)-1H-1,2,4-triazol-3-yl)phenyl)-[1,1′-biphenyl]-4-carboxamide], the mortality at 50 µg/cm2 in data set [1] and in data set [2] was 0% in each case. Moreover, the “YFM % Control (or Mortality) rating” value in data set [3] is reported as “D (No activity noticed in this bioassay)”.
As to `COc1cccc(C(=O)Nc2ccc(-c3ncn(-c4ccc(OC(F)(F)F)cc4)n3)cc2)c1` [F13, 3-Methoxy-N-(4-(1-(4-(trifluoromethoxy)phenyl)-1H-1,2,4-triazol-3-yl)phenyl)benzamide], the mortality at 50 µg/cm2 in data set [1] and in data set [2] was 50 to 100% each time. Besides, the “YFM % Control (or Mortality) rating” value in data set [3] is “B (More than 0 - Less than 80)”.
In the case of `O=C(Nc1ccc(-c2ncn(-c3ccc(OC(F)(F)F)cc3)n2)cc1)c1ccccc1Oc1ccccc1` [F4, 2-Phenoxy-N-(4-(1-(4-(trifluoromethoxy)phenyl)-1H-1,2,4-triazol-3-yl)phenyl)benzamide], the mortality at 50 µg/cm2 in data set [1] and in data set [2] was 50 to 100% throughout. Further, the “YFM % Control (or Mortality) rating” value in data set [3] is on record as “D (No activity noticed in this bioassay)”.
For `CC(C)c1cccc(C(=O)Nc2ccc(-c3ncn(-c4ccc(C(F)(F)F)cc4)n3)cc2)c1` [F24, 3-Isopropyl-N-(4-(1-(4-(trifluoromethyl)phenyl)-1H-1,2,4-triazol-3-yl)phenyl)benzamide], the mortality at 50 µg/cm2 in data set [1] was 0%; in data set [2], 50 to 100%. The “YFM % Control (or Mortality) rating” value in data set [3] is “D (No activity noticed in this bioassay)”.
In the same order, the values of `CC(C)c1cccc(C(=O)Nc2ccc(-c3ncn(-c4ccc(OC(F)(F)F)cc4)n3)cc2)c1` [F15, 3-Isopropyl-N-(4-(1-(4-(trifluoromethoxy)phenyl)-1H-1,2,4-triazol-3-yl)phenyl)benzamide] are 0%, 50 to 100% and “D (No activity noticed in this bioassay)”.
In the same order, the values of `Cc1ccc(C(=O)NCc2ccc(-c3ncn(-c4ccc(OC(F)(F)F)cc4)n3)cc2)c(C)c1` [F29, 2,4-Dimethyl-N-(4-(1-(4-(trifluoromethoxy)phenyl)-1H-1,2,4-triazol-3-yl)benzyl)benzamide] are 0%, 0% and “D (No activity noticed in this bioassay)”.
In the same order, the values of `O=C(Nc1ccc(-c2ncn(-c3ccc(OC(F)(F)F)cc3)n2)cc1)c1cccc(COCC(F)(F)C(F)F)c1` [F20, 3-((2,2,3,3-Tetrafluoropropoxy)methyl)-N-(4-(1-(4-(trifluoromethoxy)phenyl)-1H-1,2,4-triazol-3-yl)phenyl)benzamide] are 0%, 0% and “B (More than 0 - Less than 80)”.
With `COc1ccccc1C(=O)Nc1ccc(-c2ncn(-c3ccc(OC(F)(F)F)cc3)n2)cc1` [F11, 2-Methoxy-N-(4-(1-(4-(trifluoromethoxy)phenyl)-1H-1,2,4-triazol-3-yl)phenyl)benzamide], the mortality at 50 µg/cm2 in data set [1] was 50 to 100%; in data set [2], 0%. Further, the “YFM % Control (or Mortality) rating” value in data set [3] is given as “D (No activity noticed in this bioassay)”.
For `CCOc1ccccc1Oc1ccccc1C(=O)Nc1ccc(-c2ncn(-c3ccc(OC(F)(F)C(F)(F)F)cc3)n2)cc1` [F18, 2-(2-Ethoxyphenoxy)-N-(4-(1-(4-(perfluoroethoxy)phenyl)-1H-1,2,4-triazol-3-yl)phenyl)benzamide] the same measures were 0%, 0% and “D (No activity noticed in this bioassay)”.
For `Cc1ccc(-c2ccccc2C(=O)NCc2ccc(-c3ncn(-c4ccc(OC(F)(F)F)cc4)n3)cc2)c(C)c1` [F33, 2′,4′-Dimethyl-N-(4-(1-(4-(trifluoromethoxy)phenyl)-1H-1,2,4-triazol-3-yl)benzyl)biphenyl-2-carboxamide] the same measures were 0 to 50%, 50 to 100% and “A (80-100)”.
Turning to `Cc1ccc(C)c(-c2ccccc2C(=O)NCc2ccc(-c3ncn(-c4ccc(OC(F)(F)F)cc4)n3)cc2)c1` [F35, 2′,5′-Dimethyl-N-(4-(1-(4-(trifluoromethoxy)phenyl)-1H-1,2,4-triazol-3-yl)benzyl)biphenyl-2-carboxamide], the mortality at 50 µg/cm2 in data set [1] fell in the range of 0 to 50%; in data set [2], 50 to 100%. Also, the “YFM % Control (or Mortality) rating” value in data set [3] is given as “B (More than 0 - Less than 80)”.
In the same order, the values of `Cc1ccccc1-c1ccccc1C(=O)NCc1ccc(-c2ncn(-c3ccc(OC(F)(F)F)cc3)n2)cc1` [F30, 2′-Methyl-N-(4-(1-(4-(trifluoromethoxy)phenyl)-1H-1,2,4-triazol-3-yl)benzyl)biphenyl-2-carboxamide] are 0 to 50%, 50 to 100% and “B (More than 0 - Less than 80)”.
In the case of `O=C(Nc1ccc(-c2ncn(-c3ccc(OC(F)(F)C(F)(F)F)cc3)n2)cc1)c1cccc(Oc2ccccc2)c1` [F9, N-(4-(1-(4-(perfluoroethoxy)phenyl)-1H-1,2,4-triazol-3-yl)phenyl)-3-phenoxybenzamide], the mortality at 50 µg/cm2 in data set [1] and in data set [2] was 0% each time. The “YFM % Control (or Mortality) rating” value in data set [3] is recorded as “D (No activity noticed in this bioassay)”.
As for `Cc1cccc(-c2ccccc2C(=O)NCc2ccc(-c3ncn(-c4ccc(OC(F)(F)F)cc4)n3)cc2)c1C` [F36, 2′,3′-Dimethyl-N-(4-(1-(4-(trifluoromethoxy)phenyl)-1H-1,2,4-triazol-3-yl)benzyl)biphenyl-2-carboxamide], the mortality at 50 µg/cm2 was in the range of 0 to 50% in data set [1] and 50 to 100% in data set [2]. In data set [3], the “YFM % Control (or Mortality) rating” value was “A (80-100)”.
In the same order, the values of `O=C(Nc1ccc(-c2ncn(-c3ccc(OC(F)(F)F)cc3)n2)cc1)c1ccccc1Cc1ccccc1` [F3, 2-benzyl-N-(4-(1-(4-(trifluoromethoxy)phenyl)-1H-1,2,4-triazol-3-yl)phenyl)benzamide] are 50 to 100%, 50 to 100% and “D (No activity noticed in this bioassay)”.
In the same order, the values of `O=C(Nc1ccc(-c2ncn(-c3ccc(OC(F)(F)F)cc3)n2)cc1)c1ccccc1COC1CCOCC1` [F23, 2-(((Tetrahydro-2H-pyran-4-yl)oxy)methyl)-N-(4-(1-(4-(trifluoromethoxy)phenyl)-1H-1,2,4-triazol-3-yl)phenyl)benzamide] are 50 to 100%, 50 to 100% and “D (No activity noticed in this bioassay)”.
